Results on 23 molecules are retold here after US8673894B2 (Hoffmann-La Roche Inc., priority 2010, dated 2014).

Each structure is given as a SMILES string. Counter-ions that a name gives are not always drawn.

The test system of assay [1] is Aβ40. The assay is described as follows: Cellular Aβ-lowering assay. The class given is cell-based. The note with it: HEK293 cells stably expressing human APP695, Aβ40 in supernatant by ELISA after 18-20 hrs; read-out: Cellular assay Abeta40 IC50. The method in brief: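 HEK293 cells stably expressing human wild-type APP695 were treated with compound for 18-20 h at 37 °C in 0.8% v/v DMSO. Secreted Aβ40 in the supernatant was measured by sandwich ELISA (Aβ40 C-terminus-specific capture, HRP-4G8 detection, TMB read at 450 nm) and quantified against a pure Aβ peptide standard curve.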
(An ELISA detects its analyte on a solid surface through an enzyme-linked reagent.)

Assay [2] concerns the target T1, endogenous cellular BACE2 (Rattus norvegicus, UniProt Q6IE75).
T1 construct: endogenous cellular BACE2 in the Ins1e rat cell line; endogenous in cells; host or cells: INS-TMEM27 (INS1e-derived rat insulinoma cell line with doxycycline-inducible full-length human TMEM27)
T1 sequence (Q6IE75 63-514): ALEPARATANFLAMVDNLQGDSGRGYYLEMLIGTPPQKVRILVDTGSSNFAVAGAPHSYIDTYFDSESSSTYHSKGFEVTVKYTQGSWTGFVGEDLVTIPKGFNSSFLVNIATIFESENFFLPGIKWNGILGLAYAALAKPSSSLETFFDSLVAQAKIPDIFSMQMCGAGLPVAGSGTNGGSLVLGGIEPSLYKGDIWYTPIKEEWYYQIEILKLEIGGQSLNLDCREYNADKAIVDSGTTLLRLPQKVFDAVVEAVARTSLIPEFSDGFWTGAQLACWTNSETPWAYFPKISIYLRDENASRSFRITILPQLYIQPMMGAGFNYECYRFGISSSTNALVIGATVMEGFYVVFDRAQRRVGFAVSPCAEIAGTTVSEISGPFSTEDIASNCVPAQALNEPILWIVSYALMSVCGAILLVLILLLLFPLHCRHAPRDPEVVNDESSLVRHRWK
Nature of the assay: Assay for BACE inhibition by measuring cellular TMEM27 cleavage. The class given is cell-based. The note with it: INS-TMEM27 (INS1e-derived) cells, shed human TMEM27 in supernatant by ELISA. The method in brief:
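INS1e rat cells with doxycycline-inducible human TMEM27 get inhibitor 2 h before doxycycline (500 ng/ml final), then 46 h further at 37° C. Shed TMEM27 in the supernatant is measured by sandwich ELISA, and the EC50 comes from a curve fit of the ELISA signal.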

Broadly, the IC50 is the point on the concentration scale where inhibition reaches its midpoint. Take `C[C@]1(c2cc(NC(=O)c3ccc(OCC(F)(F)F)cn3)ccc2F)N=C(N)COCC1(F)F` [Example 49, (R)-N-(3-(3-amino-6,6-difluoro-5-methyl-2,5,6,7-tetrahydro-1,4-oxazepin-5-yl)-4-fluorophenyl)-5-(2,2,2-trifluoroethoxy)picolinamide formate]: the half-maximal inhibitory concentration (IC50) in assay [1] was 22 nM; in assay [2], 1110 nM.
In the case of `CC1(C)OCC[C@@](C)(c2cc(NC(=O)c3ccc(F)cn3)ccc2F)N=C1N` [Example 50, 5-Fluoro-pyridine-2-carboxylic acid [3-((S)-3-amino-2,2,5-trimethyl-2,5,6,7-tetrahydro-[1,4]oxazepin-5-yl)-4-fluoro-phenyl]-amide], the IC50 in assay [1] was determined as 160 nM; in assay [2] it was 71 nM.
In the case of `C[C@@]1(c2cc(NC(=O)c3ncc(C(F)(F)F)cc3Cl)ccc2F)COCCC(N)=N1` [Example 52, 3-Chloro-5-trifluoromethyl-pyridine-2-carboxylic acid [3-((R)-5-amino-3-methyl-2,3,6,7-tetrahydro-[1,4]oxazepin-3-yl)-4-fluoro-phenyl]-amide], the IC50 in assay [1] was determined as 49 nM; in assay [2], 120 nM.
As to `C[C@@]1(c2cc(NC(=O)c3ccc(C#N)cn3)ccc2F)COCCC(N)=N1` [Example 53, 5-Cyano-pyridine-2-carboxylic acid [3-((R)-5-amino-3-methyl-2,3,6,7-tetrahydro-[1,4]oxazepin-3-yl)-4-fluoro-phenyl]-amide], the 50% inhibitory concentration (IC50) in assay [1] stood at 10 nM; in assay [2], 41 nM.
On to `C[C@]1(c2cc(NC(=O)c3ccc(OCC(F)(F)C(F)F)cn3)ccc2F)N=C(N)COCC1(F)F` [Example 54, (R)-N-(3-(3-amino-6,6-difluoro-5-methyl-2,5,6,7-tetrahydro-1,4-oxazepin-5-yl)-4-fluorophenyl)-5-(2,2,3,3-tetrafluoropropoxy)picolinamide formate], for which the IC50 in assay [1] was 29 nM; in assay [2], 570 nM.
On to `COC(C)C(=O)Nc1ccc(F)c([C@@]2(C)N=C(N)COCC2(F)F)c1` (stereo partly drawn) [Example 55, N-(3-((R)-3-amino-6,6-difluoro-5-methyl-2,5,6,7-tetrahydro-1,4-oxazepin-5-yl)-4-fluorophenyl)-2-methoxypropanamide formate], for which the IC50 in assay [1] was 140 nM; in assay [2], 190 nM.
In the case of `C[C@]1(c2cc(NC(=O)c3ncc(C#N)cc3Cl)ccc2F)N=C(N)COCC1(F)F` [Example 56, (R)-N-(3-(3-amino-6,6-difluoro-5-methyl-2,5,6,7-tetrahydro-1,4-oxazepin-5-yl)-4-fluorophenyl)-3-chloro-5-cyanopicolinamide formate], the 50% inhibitory concentration (IC50) in assay [1] amounted to 1.5 nM; in assay [2], 15.6 nM.
As for `CCOCc1ccc(C(=O)Nc2ccc(F)c([C@@]3(C)N=C(N)COCC3(F)F)c2)nc1` [Example 57, (R)-N-(3-(3-amino-6,6-difluoro-5-methyl-2,5,6,7-tetrahydro-1,4-oxazepin-5-yl)-4-fluorophenyl)-5-(ethoxymethyl)picolinamide formate], the half-maximal inhibitory concentration (IC50) in assay [1] was 14 nM; in assay [2], 280 nM.
As to `CCOC(=O)c1ccc(C(=O)Nc2ccc(F)c([C@@]3(C)N=C(N)COCC3(F)F)c2)nc1` [Example 58, (R)-ethyl 6-(3-(3-amino-6,6-difluoro-5-methyl-2,5,6,7-tetrahydro-1,4-oxazepin-5-yl)-4-fluorophenylcarbamoyl)nicotinate formate formate], the concentration for half-maximal inhibition (IC50) was 120 nM in assay [1] and 139 nM in assay [2].
The like results for `C[C@]1(c2cc(NC(=O)c3ncccc3OCC(F)(F)F)ccc2F)N=C(N)COCC1(F)F` [Example 59, (R)-N-(3-(3-amino-6,6-difluoro-5-methyl-2,5,6,7-tetrahydro-1,4-oxazepin-5-yl)-4-fluorophenyl)-3-(2,2,2-trifluoroethoxy)picolinamide] were, in that order, 160 nM and 170 nM.
Consider `C[C@]1(c2cc(NC(=O)c3ccc(OCC(F)F)cn3)ccc2F)N=C(N)COCC1(F)F` [Example 60, (R)-N-(3-(3-amino-6,6-difluoro-5-methyl-2,5,6,7-tetrahydro-1,4-oxazepin-5-yl)-4-fluorophenyl)-5-(2,2-difluoroethoxy)picolinamide formate], for which the results for the IC50 in assay [1] and in assay [2] were 26 nM and 4160 nM, respectively.
`C[C@]1(c2cc(NC(=O)c3ccc(Cl)cn3)ccc2F)N=C(N)COC[C@@H]1F` [Example 61, N-(3-((5R,6R)-3-amino-6-fluoro-5-methyl-2,5,6,7-tetrahydro-1,4-oxazepin-5-yl)-4-fluorophenyl)-5-chloropicolinamide]: the half-inhibitory concentration (IC50) in assay [1] is 0.2 nM; in assay [2] it was 1 nM.
As for `C[C@]1(c2cc(NC(=O)c3ccc(F)cn3)ccc2F)N=C(N)COC[C@@H]1F` [Example 62, N-(3-((5R,6R)-3-amino-6-fluoro-5-methyl-2,5,6,7-tetrahydro-1,4-oxazepin-5-yl)-4-fluorophenyl)-5-fluoropicolinamide], the values for the concentration for half-maximal inhibition (IC50) in assay [1] and in assay [2] were 1.8 nM and 1 nM, respectively.
With `C[C@]1(c2cc(NC(=O)c3ccc(C#N)cn3)ccc2F)N=C(N)COC[C@@H]1F` [Example 63, N-(3-((5R,6R)-3-amino-6-fluoro-5-methyl-2,5,6,7-tetrahydro-1,4-oxazepin-5-yl)-4-fluorophenyl)-5-cyanopicolinamide], the IC50 in assay [1] was found to be 0.3 nM; in assay [2] it was 91 nM.
On to `C[C@]1(c2cc(NC3CCCC3)ccc2F)N=C(N)COCC1(F)F` [Example 64, (R)-5-(5-(cyclopentylamino)-2-fluorophenyl)-6,6-difluoro-5-methyl-2,5,6,7-tetrahydro-1,4-oxazepin-3-amine], for which the results for the half-maximal inhibitory concentration (IC50) in assay [1] and in assay [2] were 360 nM and 400 nM, respectively.
Take `C[C@]1(c2cc(NC3CCCC3)ccc2F)N=C(N)COC[C@@H]1F` [Example 65, (5R,6R)-5-(5-(cyclopentylamino)-2-fluorophenyl)-6-fluoro-5-methyl-2,5,6,7-tetrahydro-1,4-oxazepin-3-amine]: the IC50 in assay [1] amounted to 48 nM; in assay [2] it was 56 nM.
Turning to `C[C@]1(c2cc(NC(=O)c3csc(Cl)n3)ccc2F)N=C(N)COCC1(F)F` [Example 66, (R)-N-(3-(3-Amino-6,6-difluoro-5-methyl-2,5,6,7-tetrahydro-1,4-oxazepin-5-yl)-4-fluorophenyl)-2-chlorothiazole-4-carboxamide formate], the IC50 in assay [1] is 15.3 nM; in assay [2], 54.4 nM.
For the molecule `CC(C)Oc1ccc(C(=O)Nc2ccc(F)c([C@@]3(C)N=C(N)COCC3(F)F)c2)nc1` [Example 67, (R)-N-(3-(3-Amino-6,6-difluoro-5-methyl-2,5,6,7-tetrahydro-1,4-oxazepin-5-yl)-4-fluorophenyl)-5-isopropoxypicolinamide formate], the figures for the IC50 in assay [1] and in assay [2] were 288 nM and 67400 nM, respectively.
`C[C@@]1(c2cc(NC(=O)c3ccc(F)cn3)ccc2F)C[C@@H](c2ccccc2)OCC(N)=N1` [Example 68, 5-Fluoro-pyridine-2-carboxylic acid [3-((5S,7S)-3-amino-5-methyl-7-phenyl-2,5,6,7-tetrahydro-[1,4]oxazepin-5-yl)-4-fluoro-phenyl]-amide]: the half-inhibitory concentration (IC50) was found to be 3850 nM in assay [1] and 5250 nM in assay [2].
As for `C[C@]1(c2cc(NC(=O)c3ccc(OCF)cn3)ccc2F)N=C(N)COCC1(F)F` [Example 70, (R)-N-(3-(3-Amino-6,6-difluoro-5-methyl-2,5,6,7-tetrahydro-1,4-oxazepin-5-yl)-4-fluorophenyl)-5-(fluoromethoxy)picolinamide formate], the IC50 in assay [1] was 5.2 nM; in assay [2] it was 172 nM.
In the case of `C[C@]1(c2cc(NC(=O)c3cnc(OCCF)cn3)ccc2F)N=C(N)COCC1(F)F` [Example 71, (R)-N-(3-(3-Amino-6,6-difluoro-5-methyl-2,5,6,7-tetrahydro-1,4-oxazepin-5-yl)-4-fluorophenyl)-5-(2-fluoroethoxy)pyrazine-2-carboxamide formate], the IC50 in assay [1] is 1500 nM; in assay [2], 12400 nM.
In the case of `C[C@]1(c2cc(NC(=O)c3cc(Cl)c(Cl)s3)ccc2F)N=C(N)COCC1(F)F` [Example 72, (R)-N-(3-(3-Amino-6,6-difluoro-5-methyl-2,5,6,7-tetrahydro-1,4-oxazepin-5-yl)-4-fluorophenyl)-4,5-dichlorothiophene-2-carboxamide formate,], the 50% inhibitory concentration (IC50) in assay [1] came out at 590 nM; in assay [2], 2440 nM.
For the molecule `C[C@]1(c2cc(NC(=O)c3nsc(Cl)n3)ccc2F)N=C(N)COCC1(F)F` [Example 73, (R)-N-(3-(3-Amino-6,6-difluoro-5-methyl-2,5,6,7-tetrahydro-1,4-oxazepin-5-yl)-4-fluorophenyl)-5-chloro-1,2,4-thiadiazole-3-carboxamide formate], the IC50 in assay [1] is 300 nM; in assay [2], 6520 nM.
